Patent US10596296B2, “Heparan sulphates” (Agency for Science, Technology and Research, priority 2014, dated 2020)

Legend:
TGF-β1 = target: T1, TGF-β1 (Homo sapiens, UniProt P01137); assay: SPR analysis of TGF-β1 binding to biotinylated heparin on SA chip
T1 construct: full length mature TGF-β1 is 112 amino acids in length
Protocol: Biotinylated heparin was prepared based on the protocol reported by Hernaiz et al. (33). Briefly, 20 mg of heparin was filter-sterilized (0.22 μm) in 1 ml of water and incubated with 8.6 μmol of N-hydroxysuccinimide-biotin (NHS-biotin) (Pierce) in 20 μl of dimethyl sulfoxide (DMSO) for 2 h at 4° C. The biotinylated heparin was then extensively dialyzed (7000 MWCO) to remove unreacted biotin. Immobilization of the biotinylated heparin onto a streptavidin (SA) sensor chip (GE Healthcare) was carried out using the immobilization wizard on the Biacore T100 (GE Healthcare) with a targeted immobilization level of approximately 40 response units (RUs). HBS-EP running buffer (10 mM HEPES, 150 mM NaCl, 3.0 mM EDTA, 0.05% (v/v) Tween 20, pH 7.4) was used for the immobilization.
TGF-β1-heparin interactions were effected by preparing a series of TGF-β1 protein samples (50 to 800 nM final concentration) diluted in HBS-EP-0.1 running buffer (0.1% instead of 0.05% (v/v) Tween 20). […] The sample solutions were then injected over the heparin-coated chip at a flow rate of 30 μl/min for 120 s, with HBS-EP-0.1 being subsequently passed over the chip for a further 1200 s to monitor TGF-β1 dissociation. After dissociation, the sensor surface on the chip was regenerated by 2 washes of 2 M NaCl injected at 30 μl/min for 60 s. The response was measured as a function of time (sensogram) at 25° C. […]

[1] = tested on: chondrogenic differentiation of hMSCs; assay: qPCR of day 3 chondrogenic micromass pellets (Example 1); format: cell-based, human; settings: day 3; 10 ng/ml TGF-β1 with 10 μg/ml heparin
Protocol: Chondrogenic differentiation was carried out using a modified micromass culture system as described by Zhang et al. (32). Briefly, passage 4 hMSCs were harvested and resuspended in chemically defined chondrogenic media (PT-3003, Lonza) at 2×10^7 cells/ml. Droplets of 12.5 μl were then seeded into the middle of each well in a 24-well plate and left to adhere at 37° C. for 2 h, after which, 500 μl of chondrogenic media supplemented with either 10 ng/ml of TGF-β1 (100-21C, PeproTech) alone (Media) or TGF-β1 with 10 μg/ml of heparin (Sigma-Aldrich) (Media+Hep) was added to each well. The cell droplets coalesced into spherical masses after 24 h and the micromasses harvested on day 3. Human MSCs were cultured in 6-well plates in basal media for 24 h at a density of 10,000 cells/cm^2. TGF-β1 treatments were then prepared at either 1 ng/ml or 5 ng/ml alone or in the presence of either 10 μg/ml or 40 μg/ml of full length heparin, or 1 ng/ml of TGF-β1 with 10 μg/ml size-fractionated or selectively desulfated heparin, HS^PM, HS16+ or HS16−, and incubated at room temperature for 10 min before being added to the cells. Latent TGF-β1 (LTGF-β1) treatments were similarly prepared at 3.3 ng/ml alone or with 10 μg/ml of the various GAGs described above. For inhibitor studies, the cells were pre-treated for 30 min with 10 μM SB431542 (Sigma-Aldrich) or DMSO before treatment with TGF-β1. The cells were then subjected to the various TGF-β1 treatments for 1, 6 or 24 h and lysed in 2× Laemmli buffer, before being resolved on a 4-12% SDS-PAGE gel. Samples were then immunoblotted with antibodies against SMAD2/3 (#3102, Cell Signaling), phosphorylated SMAD2 (pSMAD2, #3108, Cell Signaling), phosphorylated SMAD3 (pSMAD3, #9520, Cell Signaling) and actin (MAB1501R, Millipore). Densitometry was carried out using Quantity One software (version 4.6.6, Bio-Rad). Total RNA was isolated from chondrogenic micromass pellets using TRIZOL reagent (Invitrogen, Life Technologies) according to the manufacturer's protocol. Reverse transcription was carried out on 1 μg RNA using the SuperScript® VILO™ cDNA Synthesis Kit (Invitrogen, Life Technologies) following the manufacturer's instructions, with the incubation at 42° C. being carried out for 2 h instead of 1 h. Each qPCR contained 40 ng cDNA, 1 μl TaqMan® primer-probe mix per gene, and 10 μl Taqman® Fast Universal PCR Master Mix (Applied Biosystems, Life Technologies) in a final volume of 20 μl. Thermal cycling conditions were 95° C. for 20 s, followed by 45 cycles of 95° C. for 3 s and 60° C. for 30 s. Each qPCR was run in duplicate and gene expression was normalized to HPRT1 expression to obtain the ΔCt value. […] Relative expression levels for each primer set were expressed as fold changes by the 2^−ΔΔCt method (36). […]

T1 sequence (P01137 279-390 limits assumed): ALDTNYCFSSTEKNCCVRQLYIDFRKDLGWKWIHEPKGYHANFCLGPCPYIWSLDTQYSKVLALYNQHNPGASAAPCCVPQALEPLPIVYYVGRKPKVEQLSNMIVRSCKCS

Substance: heparin
- TGF-β1 binding to heparin immobilized on Biacore SA-chip (TGF-β1): bound in a dose-dependent manner
- Kd (TGF-β1; TGF-β1 50 to 800 nM injected over heparin-coated SA chip): ~0.475 µM
- COMP mRNA transcripts relative to Media (TGF-β1 alone) [1]: ~5 fold
- SOX9 mRNA transcripts relative to Media (TGF-β1 alone) [1]: ~5 fold
